Source: EP0429372A1, “2-Azolyl nicotinate derivatives as herbicides” (RHONE-POULENC AGROCHIMIE, priority 1989, dated 1991)
Read-outs that look alike come from different tables or passages of the source.

Assays:
Type in all cases: in vivo
mauvaises herbes [1] = assay: Procedure 1 b): weed control, pre-emergence application; conditions: 4000 g/ha (procédé 1B), visual rating 17 to 20 days after spraying, vs control pots
From the text: (§1) Des quantités appropriées des composés d'essai ont été dissoutes dans de l'acétone pour obtenir des solutions équivalant à des taux d'application de 250, 1000 ou 4000 g de composé d'essai par hectare (g/ha).
Des graines de mauvaises herbes ont été semées à la surface de compost de mise en pot John Innes N°1 (7 parties par volume de terre végétale stérilisée, 3 parties en volume de gravier fin) dans des pots en matière plastique de 70 mm de côté et 75 mm de profondeur. Les quantités de graines par pot étaient les suivantes :
Les composés de la présente invention ont été appliqués aux graines non recouvertes de la manière décrite dans le paragraphe (a) ci-dessus et ces graines ont été recouvertes avec 25ml de sable liant après pulvérisation. Un seul pot de chaque espèce de mauvaise herbe a été attribué à chaque traitement, en association avec des témoins n'ayant pas subi de pulvérisation et des témoins ayant subi une pulvérisation avec de l'acétone seule. Après traitement, les pots ont été maintenus dans une serre et ont été arrosés par aspersion. L'évaluation visuelle de l'activité de destruction des mauvaises herbes a été effectuée 17 à 20 jours après pulvérisation. Les résultats ont été exprimés par le pourcentage de réduction de croissance ou de mortalité des mauvaises herbes, comparativement aux plantes présentes dans les pots témoins.

mauvaises herbes [2] = conditions: post-emergence
From the text: as §1
Des espèces de mauvaises herbes ont été cultivées, puis transplantées au stade de jeunes plants de semis dans du compost de mise en pot John Innes N°1 dans des pots en matière plastique de 70 mm de côté et 75 mm de profondeur, sauf en ce qui concerne Avena fatua, qui a été semée directement dans le pot d'essai et n' a pas été transplantée. Puis les plantes ont été cultivées dans la serre jusqu'à ce qu'elles soient prêtes à subir une pulvérisation avec les composés d'essai. Le nombre de plantes par pot et la croissance de la plante au moment de la pulvérisation étaient les suivantes :
Les composés d'essai ont été appliquées aux plantes de la manière décrite dans le paragraphe (a) ci-dessus. Un seul pot de chaque espèce de mauvaises a été attribué à chaque traitement, en association avec des témoins n'ayant pas subi de pulvérisation et des témoins ayant subi une pulvérisation avec de l'acétone seule. Après pulvérisation, les pots ont été arrossés par aspersion, en commençant 24 heures après pulvérisation. L'évalutation visuelle de la lutte contre la croissance des mauvaises herbes a été effectuée 17 à 20 jours après pulvérisation. Les résultats ont été exprimés en pourcentage de réduction de croissance ou de mortalité des mauvaises herbes, comparativement aux plantes présentes dans les pots témoins.

Digitaria sanguinalis = assay: Example B: post-emergence herbicidal application, pot test; conditions: 1000 g/ha, 576 h
From the text: (§2) Dans des pots de 7 x 7 x 8 cm remplis de terre agricole légère, on sème un nombre de graines déterminé en fonction de l'espèce végétale et de la grosseur de la graine.
(§3) On recouvre ensuite les graines d'une couche de terre d'environ 3 mm d'épaisseur et on laisse germer la graine jusqu'à ce qu'elle donne naissance à une plantule au stade convenable. Le stade de traitement pour les graminées est le stade "deuxième feuille en formation ". Le stade de traitement pour les dicotylédones, est le stade "cotylédons étalés, première feuille vraie en développement".
(§4) Les pots sont alors traités par pulvérisation de bouillie en quantité correspondant à une dose volumique d'application de 500 l/ha et contenant la matière active à la concentration désirée.
(§5) La bouille a été préparée de la même manière qu'à l'exemple A.
(§6) Les pots traités sont ensuite placés dans des bacs destinés à recevoir l'eau d'arrosage, en subirrigation, et maintenus pendant 24 jours à température ambiante sous 70 % d'humidité relative.
(§7) Au bout de 24 jours, on mesure un pourcentage (D) de destruction du nombre de pieds dans le pot traité par rapport au nombre de plantes dans les pots non traités (témoin). On mesure, sur les plantes traitées restantes, le pourcentage de réduction de taille (RT) par rapport aux plantes témoin.
(§8) Le pourcentage du volume foliaire non détruit par le produit est donc donné par la formule : [formula]
(§9) Cette valeur A est transformée en notation de 0 à 5 selon l'échelle suivante :
(§10) Les résultats obtenus sont présentés après le tableau A pour des doses d'application de 4000 g/ha.

Echinochloa crusgalli = assay: as above; conditions: 1000 g/ha, 576 h
From the text: as §2, §3, §4, §5, §6, §7, §8, §9, §10

Ipomea purpurea = assay: as above; conditions: 1000 g/ha, 576 h
From the text: as §2, §3, §4, §5, §6, §7, §8, §9, §10

Solanum nigrum [3] = assay: as above; conditions: 1000 g/ha, 576 h
From the text: as §2, §3, §4, §5, §6, §7, §8, §9, §10

Ipomea pupurea = assay: Example C: selectivity test in major crops, post-emergence application; conditions: 576 h
From the text: as §2
as §3, with “formation".” for “formation ".”
as §4
(§11) La bouillie a été préparée de la même manière qu'à l'exemple A.
as §6, §7
(§12) Le pourcentage de volume foliaire non détruit par le produit est donc donné par la formule : [formula]
as §9
(§13) Ainsi, un produit est jugé comme sélectif vis à vis de la culture lorsque la valeur A notée est de 0 ou 1.
(§14) Les résultats obtenus sont présentés dans l'exemple C pour des doses d'application comprises entre 0,5 et 4 kg de matière active par hectare selon les produits.

Oryza sativa = assay: as above; conditions: crop (Riz), 24 days, score 0-5, 0 or 1 = selective; also: ranges in brackets are in %
From the text: as §2
as §3, with “formation".” for “formation ".”
as §4, §11, §6, §7, §12, §9, §13, §14

Sesbania exaltata = assay: as above; conditions: 576 h
From the text: as §2
as §3, with “formation".” for “formation ".”
as §4, §11, §6, §7, §12, §9, §13, §14

Solanum nigrum [4] = assay: as above; conditions: 576 h
From the text: as §2
as §3, with “formation".” for “formation ".”
as §4, §11, §6, §7, §12, §9, §13, §14

Triticum aestivum = assay: as above; conditions: crop (Blé), 24 days, score 0-5, 0 or 1 = selective; also: ranges in brackets are in %
From the text: as §2
as §3, with “formation".” for “formation ".”
as §4, §11, §6, §7, §12, §9, §13, §14

Viola tricolor = assay: as above; conditions: 576 h
From the text: as §2
as §3, with “formation".” for “formation ".”
as §4, §11, §6, §7, §12, §9, §13, §14

Xanthium pennsylvanicum = assay: as above; conditions: 576 h
From the text: as §2
as §3, with “formation".” for “formation ".”
as §4, §11, §6, §7, §12, §9, §13, §14

Zea mays = assay: as above; conditions: crop (Maïs), 24 days, score 0-5, 0 or 1 = selective; also: ranges in brackets are in %
From the text: as §2
as §3, with “formation".” for “formation ".”
as §4, §11, §6, §7, §12, §9, §13, §14

Chrysanthemum segetum = conditions: post-emergence, 576 h
From the text: as §2
as §3, with “formation".” for “formation ".”
as §4, §11, §6, §7, §12, §9, §13, §14

Convolvulus arvensis = conditions: post-emergence, 576 h
From the text: as §2
as §3, with “formation".” for “formation ".”
as §4, §11, §6, §7, §12, §9, §13, §14

Polygonum convolvulus = conditions: 576 h
From the text: as §2
as §3, with “formation".” for “formation ".”
as §4, §11, §6, §7, §12, §9, §13, §14

Sinapis alba = assay: Example B: post-emergence herbicidal application, pot test; conditions: 1000 g/ha, 576 h

`CN(C)S(=O)(=O)n1c(-c2ncccc2C(=O)OCC(F)(F)F)nc2ccccc21` [compound 100] was tested, and the “réduction de la croissance d'une ou plusieurs des espèces de mauvaises herbes” value (mauvaises herbes [1]) was no less than 90% and the “réduction de la croissance d'une ou plusieurs des espèces de mauvaises herbes” value (mauvaises herbes [2]) was no less than 90%.

In the case of `C=CCOC(=O)c1cccnc1-c1nc2ccccc2n1S(=O)(=O)N(C)C` [compound 101], the “réduction de la croissance d'une ou plusieurs des espèces de mauvaises herbes” value (mauvaises herbes [1]) is reported as no less than 90% and the “réduction de la croissance d'une ou plusieurs des espèces de mauvaises herbes” value (mauvaises herbes [2]) is reported as no less than 90%.

`CN(C)S(=O)(=O)n1c(-c2ncccc2C(=O)O)nc2ccccc21` [compound 119] was tested, and the “ACTIVITE DE POST-LEVEE DIG” value (Digitaria sanguinalis) was 0 (90 à 100), the “ACTIVITE DE POST-LEVEE ECH” value (Echinochloa crusgalli) was 0 (90 à 100) and the “ACTIVITE DE POST-LEVEE IPO” value (Ipomea purpurea) was 3 (30 à 50). For the same compound, the “ACTIVITE DE POST-LEVEE SOL” value (Solanum nigrum [3]) was 5 (O à 10), the “ACTIVITE HERBICIDE DE POST LEVEE I P O” value (Ipomea pupurea; 500 g/ha) was 3 (30 à 50) and the “ACTIVITE HERBICIDE DE POST LEVEE O R Y” value (Oryza sativa; dose 0,5 kg/ha) was 0 (90 à 100). The “ACTIVITE HERBICIDE DE POST LEVEE S E S” value (Sesbania exaltata; 500 g/ha) was 5 (O à 10), the “ACTIVITE HERBICIDE DE POST LEVEE S O L” value (Solanum nigrum [4]; 500 g/ha) was 4 (10 à 30) and the “ACTIVITE HERBICIDE DE POST LEVEE T R Z” value (Triticum aestivum; dose 0,5 kg/ha) was 0 (90 à 100). For the same compound, the “ACTIVITE HERBICIDE DE POST LEVEE V I O” value (Viola tricolor; 500 g/ha) was 3 (30 à 50), the “ACTIVITE HERBICIDE DE POST LEVEE X A N” value (Xanthium pennsylvanicum; 500 g/ha) was 3 (30 à 50) and the “ACTIVITE HERBICIDE DE POST LEVEE Z E A” value (Zea mays; dose 0,5 kg/ha) was 0 (90 à 100). The “ACTIVITE HERBICIDE DE POST LEVEE C H Y” value (Chrysanthemum segetum; 500 g/ha) was 5 (O à 10), the “ACTIVITE HERBICIDE DE POST LEVEE C O N” value (Convolvulus arvensis; 500 g/ha) was 2 (50 à 70) and the “ACTIVITE HERBICIDE DE POST LEVEE P O L” value (Polygonum convolvulus; 500 g/ha) was 5 (O à 10). For the same compound, the “ACTIVITE DE POST-LEVEE SIN” value (Sinapis alba) was 4 (10 à 30).

In the case of `CN(C)S(=O)(=O)n1c(-c2ncccc2C(=O)O)nc2ccccc21` [compound 122], the “ACTIVITE DE POST-LEVEE DIG” value (Digitaria sanguinalis) is reported as 1 (70 à 90), the “ACTIVITE DE POST-LEVEE ECH” value (Echinochloa crusgalli) is reported as 2 (50 à 70) and the “ACTIVITE DE POST-LEVEE IPO” value (Ipomea purpurea) is reported as 4 (10 à 30). The “ACTIVITE DE POST-LEVEE SOL” value (Solanum nigrum [3]) was 5 (O à 10), the “ACTIVITE HERBICIDE DE POST LEVEE I P O” value (Ipomea pupurea; 1000 g/ha) was 5 (O à 10) and the “ACTIVITE HERBICIDE DE POST LEVEE O R Y” value (Oryza sativa; dose 1 kg/ha) was 0 (90 à 100). The “ACTIVITE HERBICIDE DE POST LEVEE S E S” value (Sesbania exaltata; 1000 g/ha) was 5 (O à 10), the “ACTIVITE HERBICIDE DE POST LEVEE S O L” value (Solanum nigrum [4]; 1000 g/ha) was 5 (O à 10) and the “ACTIVITE HERBICIDE DE POST LEVEE T R Z” value (Triticum aestivum; dose 1 kg/ha) was 0 (90 à 100). The “ACTIVITE HERBICIDE DE POST LEVEE V I O” value (Viola tricolor; 1000 g/ha) was 3 (30 à 50), the “ACTIVITE HERBICIDE DE POST LEVEE X A N” value (Xanthium pennsylvanicum; 1000 g/ha) was 5 (O à 10) and the “ACTIVITE HERBICIDE DE POST LEVEE Z E A” value (Zea mays; dose 1 kg/ha) was 0 (90 à 100). For the same compound, the “ACTIVITE HERBICIDE DE POST LEVEE C H Y” value (Chrysanthemum segetum; 1000 g/ha) was 5 (O à 10), the “ACTIVITE HERBICIDE DE POST LEVEE C O N” value (Convolvulus arvensis; 1000 g/ha) was 5 (O à 10) and the “ACTIVITE HERBICIDE DE POST LEVEE P O L” value (Polygonum convolvulus; 1000 g/ha) was 5 (O à 10). The “ACTIVITE DE POST-LEVEE SIN” value (Sinapis alba) was 5 (O à 10).
